Biological target: T1, OATP1B1 (Homo sapiens, UniProt Q9Y6L6)
T1 sequence (Q9Y6L6 1-691): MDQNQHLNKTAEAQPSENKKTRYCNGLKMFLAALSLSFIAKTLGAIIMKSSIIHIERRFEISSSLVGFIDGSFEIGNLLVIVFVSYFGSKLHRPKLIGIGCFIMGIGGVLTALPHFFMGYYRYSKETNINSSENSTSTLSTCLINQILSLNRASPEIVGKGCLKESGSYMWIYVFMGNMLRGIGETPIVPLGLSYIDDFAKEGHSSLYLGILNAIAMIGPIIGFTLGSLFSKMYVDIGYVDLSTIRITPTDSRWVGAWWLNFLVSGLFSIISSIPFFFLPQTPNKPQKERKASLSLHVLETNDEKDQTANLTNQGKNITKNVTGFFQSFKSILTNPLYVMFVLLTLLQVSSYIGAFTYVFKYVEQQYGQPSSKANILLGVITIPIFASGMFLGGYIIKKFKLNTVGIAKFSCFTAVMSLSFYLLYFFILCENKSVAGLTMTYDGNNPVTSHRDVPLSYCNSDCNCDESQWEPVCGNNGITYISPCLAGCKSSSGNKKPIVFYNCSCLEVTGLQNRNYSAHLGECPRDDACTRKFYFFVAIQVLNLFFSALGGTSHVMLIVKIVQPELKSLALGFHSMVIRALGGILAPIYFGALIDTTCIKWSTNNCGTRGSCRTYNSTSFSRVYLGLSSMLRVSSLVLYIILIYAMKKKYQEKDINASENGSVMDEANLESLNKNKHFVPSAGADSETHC
Test: in vitro selectivity profile: OATP1B1 transporter activity
Type: cell-based
Protocol: The secondary pharmacological profile (i.e., sGC-independent activity) of GSK2181236A was assessed in cell-based functional assays by characterizing the interaction between GSK2181236A and 38 distinct human enzymes, ion channels, transporters, and G-protein-coupled receptors including 5-HT (5-HT1B/2A/2C/3), 5-HT transporter (SERT), adenosine (A2a), adrenergic (α1B/2C, β2), Aurora B kinase, cycoloxygenase-2 (COX-2), CaV1.2, cytochrome P450 (CYP2C19, 2D6, and 3A4), dopamine (D2), dopamine transporter (DAT), gamma-aminobutyric acid (GABAA), glycogen synthase kinase-3 (GSK3β) histamine (H1), KV1.5, KV7.1, KV11.1, lymphocyte-specific protein tyrosine kinase (LCK), L-monoamine oxidase (MAO-B) muscarinic (M1/2), NaV1.5, nicotinic (α1 nAChR), noradrenaline transporter (NET), opioid (κ, μ), organic anion transporting polypeptide C (OATP1B1), phosphodiesterase 5 (PDE5), phosphatidylinositol 3-kinase (PI3Kγ), pregnane X receptor (PXR), tachykinin (NK1), and vasopressin (V1a).

## Cc1cc(-c2ccc(OC(F)(F)F)cc2)ccc1COc1ccccc1-c1cccc(-n2ncc(C(=O)O)c2C(F)(F)F)n1 [GSK2181236A, 1-(6-{2-[({3-methyl-4′-[(trifluoromethyl)oxy]-4-biphenylyl}methyl)oxy]phenyl}-2-pyridinyl)-5-(trifluoromethyl)-1H-pyrazole-4-carboxylic acid]
human, cell-based functional assay (human OATP1B1 transporter), vs P-VASP EC50 12.7 nM, read-out: selectivity for sGC over OATP1B1
  selectivity ratio: 23
read-out: IC50, inhibition of transporter activity
  IC50: 300 nM

From publication PMC3389674, “Comparison of Soluble Guanylate Cyclase Stimulators and Activators in Models of Cardiovascular Disease Associated with Oxidative Stress” (Frontiers in Pharmacology, 2012)
